Source: patent US20090075915A1, “6,11-BICYCLOLIDES: BRIDGED BIARYL MACROLIDE DERIVATIVES” (priority 2007, published 2009)
Values after ≈ are worked out from the molar mass of the structure shown.

Assays:
H influenzae 33929 = experiment: MIC, H influenzae 33929; format: cell-based, Haemophilus influenzae; conditions: for H. influenzae 33929 (microbiological data): Table 6, related compounds of US 6878691; for MIC: Haemophilus influenzae, 33929, Table 5
Method: (§1) Susceptibility tests can be used to quantitatively measure the in vitro activity of an antimicrobial agent against a given bacterial isolate. Compounds are tested for in vitro antibacterial activity by a micro-dilution method. Minimal Inhibitory Concentration (MIC) is determined in 96 well microtiter plates utilizing the appropriate broth medium for the observed bacterial isolates. Antimicrobial agents are serially diluted (2-fold) in DMSO to produce a concentration range from about 64 μg/ml to about 0.03 μg/ml. The diluted compounds (2 μl/well) are then transferred into sterile, uninoculated medium (0.2 mL) by use of a 96 fixed tip-pipetting station. The inoculum for each bacterial strain is standardized to approximately 5×10^5 CFU/mL by optical comparison to a 0.5 McFarland turbidity standard. The plates are inoculated with 10 μl/well of adjusted bacterial inoculum. The 96 well plates are covered and incubated at 35±2° C. for 24 hours in ambient air environment. Following incubation, plate wells are visually examined by Optical Density measurement for the presence of growth (turbidity). The lowest concentration of an antimicrobial agent at which no visible growth occurs is defined as the MIC.
(§2) All in vitro testing follows the guidelines described in the Approved Standards M7-A7 protocol, published by the Clinical Laboratory Standards Institute (CLSI).

MRSA 33591 = experiment: MIC, MRSA 33591; format: cell-based, Staphylococcus aureus; conditions: for MRSA 33591 (microbiological data): Table 6, related compounds of US 6878691; for MIC: Staphylococcus aureus, MRSA, Table 5
Method: as §1, §2

H influenzae 49247 = experiment: MIC, H influenzae 49247; format: cell-based, Haemophilus influenzae; conditions: for H. influenzae 49247 (microbiological data): Table 6, related compounds of US 6878691; for MIC: Haemophilus influenzae, 49247, Table 5
Method: as §1, §2

MRSA 7662 = experiment: MIC, MRSA 7662; format: cell-based; conditions: Staphylococcus aureus, Table 5, read-out: MIC MRSA 7662
Method: as §1, §2

S. pneumoniae 7701 [1] = experiment: MIC, S. pneumoniae 7701; format: cell-based
Method: as §1, §2

H. influenzae S1280 [2] = experiment: MIC, H. influenzae S1280; format: cell-based, Haemophilus influenzae; parameters: unit not given beside the values
Method: as §1, §2

S. pneumoniae 7701 [3] = experiment: Mouse protection test model (MPT), S. pneumoniae 7701; format: in vivo; conditions: Streptococcus pneumoniae
S. aureus Smith [4] = experiment: MIC, S. aureus Smith; format: cell-based, Staphylococcus aureus; conditions: table of animal models of infection
Method: as §1, §2

H. influenzae 1435 [5] = experiment: MIC, H. influenzae 1435; format: cell-based, Haemophilus influenzae; parameters: unit not given beside the values
Method: as §1, §2

S. aureus Smith [6] = experiment: Systemic mouse protection model (MPT), S. aureus Smith; format: in vivo; conditions: Staphylococcus aureus, MPT
H. influenzae 1435 [7] = experiment: Rat lung infection model (RLI), H. influenzae 1435; format: in vivo; conditions: Haemophilus influenzae, read-out: ED50 (2Log Red for RLI)
H. influenzae S1280 [8] = experiment: Rat lung infection model (RLI), H. influenzae S1280; format: in vivo; conditions: Haemophilus influenzae, read-out: ED50 (2Log Red for RLI)
H. influenzae 3643 [9] = experiment: Rat lung infection model (RLI), H. influenzae 3643; format: in vivo; conditions: Haemophilus influenzae, read-out: ED50 (2Log Red for RLI)
H. influenzae 3643 [10] = experiment: MIC, H. influenzae 3643; format: cell-based, Haemophilus influenzae; parameters: unit not given beside the values
Method: as §1, §2

| SMILES | H. influenzae 33929 (microbiological data) (H influenzae 33929) | MRSA 33591 (microbiological data) (MRSA 33591) | H. influenzae 49247 (microbiological data) (H influenzae 49247) | other results |
| --- | --- | --- | --- | --- |
| CCNC(=O)c1cccc(-c2cc(CON=C3COC4C(C)C(=NC(C)=O)C(C)CC(C)(OC3)C(OC3OC(C)CC(N(C)C)C3O)C(C)C(=O)C(C)C(=O)OC(CC)C4(C)O)on2)n1 (stereo not drawn) [Example 195 in US 6878691] | 32 | >64 | 32 | – |
| CCC(=O)/N=C1\[C@H](C)C[C@@]2(C)OC/C(=N/OCc3csc(-c4cccc(N)n4)n3)CO[C@H]([C@H]1C)[C@](C)(O)[C@@H](CC)OC(=O)[C@@](C)(F)C(=O)[C@H](C)[C@H]2O[C@@H]1O[C@H](C)C[C@H](N(C)C)[C@H]1O [Compound 3] | – | – | – | MIC (H influenzae 33929): 4 µg/mL (≈ 4.42 µM); MIC (MRSA 33591): 2 µg/mL (≈ 2.21 µM); MIC (MRSA 7662): 1 µg/mL (≈ 1.1 µM); MIC (H influenzae 49247): 1 µg/mL (≈ 1.1 µM) |
| CCC1OC(=O)C(C)C(=O)C(C)C(OC2OC(C)CC(N(C)C)C2O)C2(C)CC(C)C(=NC(C)=O)C(C)C(OCC(=NOCc3ccc(-c4nccs4)nc3)CO2)C1(C)O (stereo not drawn) [Example 212 in US 6878691] | 4 | 64 | 8 | – |
| CCC1OC(=O)C(C)(F)C(=O)C(C)C(OC2OC(C)CC(N(C)C)C2O)C2(C)CC(C)C(=NC(C)=O)C(C)C(OCC(=NOCc3ccc(-c4cccc(N)n4)s3)CO2)C1(C)O (stereo not drawn) [Example 173 in US 6878691] | 4 | 4 | 4 | – |
| CCC1OC(=O)C(C)(F)C(=O)C(C)C(OC2OC(C)CC(N(C)C)C2O)C2(C)CC(C)C(=NC(C)=O)C(C)C(OCC(=NOCc3ccc(-c4csnn4)cc3)CO2)C1(C)O (stereo not drawn) [Example 219 in US 6878691] | 4 | 32 | 4 | – |
| CCC1OC(=O)C(C)C(=O)C(C)C(OC2OC(C)CC(N(C)C)C2O)C2(C)CC(C)C(=NC(C)=O)C(C)C(OCC(=NOCc3ccc(-n4cncn4)cc3)CO2)C1(C)O (stereo not drawn) [Example 91 in US 6878691] | 16 | >64 | 8 | – |
| CCC1OC(=O)C(C)C(=O)C(C)C(OC2OC(C)CC(N(C)C)C2O)C2(C)CC(C)C(=NC(C)=O)C(C)C(OCC(=NOCc3ccc(-c4nnc(N)s4)nc3)CO2)C1(C)O (stereo not drawn) [Example 234 in US 6878691] | 4 | >64 | 4 | – |
| CCC1OC(=O)C(C)(F)C(=O)C(C)C(OC2OC(C)CC(N(C)C)C2O)C2(C)CC(C)C(=NC(C)=O)C(C)C(OCC(=NOCc3ccc(-c4cnccn4)s3)CO2)C1(C)O (stereo not drawn) [Example 141 in US 6878691] | 8 | 32 | 8 | – |
| CCC1OC(=O)C(C)(F)C(=O)C(C)C(OC2OC(C)CC(N(C)C)C2O)C2(C)CC(C)C(=NC(C)=O)C(C)C(OCC(=NOCc3ccc(-n4cccn4)nc3)CO2)C1(C)O (stereo not drawn) [Example 214 in US 6878691] | 4 | 64 | 8 | – |
| CCC1OC(=O)C(C)C(=O)C(C)C(OC2OC(C)CC(N(C)C)C2O)C2(C)CC(C)C(=NC(C)=O)C(C)C(OCC(=NOCc3cnc(-n4cccn4)c(F)c3)CO2)C1(C)O (stereo not drawn) [Example 259 in US 6878691] | 8 | >64 | 4 | – |
| CCC1OC(=O)C(C)C(=O)C(C)C(OC2OC(C)CC(N(C)C)C2O)C2(C)CC(C)C(=NC(C)=O)C(C)C(OCC(=NOCc3ccc(-c4csnn4)cc3)CO2)C1(C)O (stereo not drawn) [Example 72 in US 6878691] | 8 | >64 | 8 | – |
| CC[C@H]1OC(=O)[C@H](C)C(=O)[C@H](C)[C@@H](O[C@@H]2O[C@H](C)C[C@H](N(C)C)[C@H]2O)[C@@]2(C)C[C@@H](C)C(=O)[C@H](C)[C@@H](OC/C(=N\OCc3ccc(-c4nc(N)ns4)cn3)CO2)[C@]1(C)O [Compound 2] | – | – | – | MIC (H influenzae 33929): 2 µg/mL (≈ 2.4 µM); MIC (H influenzae 49247): 1 µg/mL (≈ 1.2 µM) |
| CCC1OC(=O)C(C)C(=O)C(C)C(OC2OC(C)CC(N(C)C)C2O)C2(C)CC(C)C(=NC(C)=O)C(C)C(OCC(=NOCc3ccc(-c4cccnc4)s3)CO2)C1(C)O (stereo not drawn) [Example 66 in US 6878691] | 16 | >64 | 16 | – |
| CCC1OC(=O)C(C)C(=O)C(C)C(OC2OC(C)CC(N(C)C)C2O)C2(C)CC(C)C(=NC(C)=O)C(C)C(OCC(=NOCc3noc(-c4ccccc4)n3)CO2)C1(C)O (stereo not drawn) [Example 106 in US 6878691] | 8 | >64 | 8 | – |
| CCC1OC(=O)C(C)C(=O)C(C)C(OC2OC(C)CC(N(C)C)C2O)C2(C)CC(C)C(=NC(C)=O)C(C)C(OCC(=NOCc3ccc(-c4cccs4)nc3)CO2)C1(C)O (stereo not drawn) [Example 205 in US 6878691] | 4 | >64 | 8 | – |
| CCC1OC(=O)C(C)C(=O)C(C)C(OC2OC(C)CC(N(C)C)C2O)C2(C)CC(C)C(=NC(C)=O)C(C)C(OCC(=NOCc3ccc(-c4ccccn4)s3)CO2)C1(C)O (stereo not drawn) [Example 115 in US 6878691] | 16 | >64 | 16 | – |
| CCC1OC(=O)C(C)C(=O)C(C)C(OC2OC(C)CC(N(C)C)C2O)C2(C)CC(C)C(=NC(C)=O)C(C)C(OCC(=NOCc3cc(-c4cccnc4)no3)CO2)C1(C)O (stereo not drawn) [Example 69 in US 6878691] | 16 | >64 | 16 | – |
| CCC1OC(=O)C(C)C(=O)C(C)C(OC2OC(C)CC(N(C)C)C2O)C2(C)CC(C)C(=NC(C)=O)C(C)C(OCC(=NOCc3ccc(-c4cccc(N)n4)nc3)CO2)C1(C)O (stereo not drawn) [Example 227 in US 6878691] | 4 | 32 | 4 | – |
| CCC(=O)/N=C1\[C@H](C)C[C@@]2(C)OC/C(=N/OCc3coc(-c4cccc(N)n4)n3)CO[C@H]([C@H]1C)[C@](C)(O)[C@@H](CC)OC(=O)[C@@](C)(F)C(=O)[C@H](C)[C@H]2O[C@@H]1O[C@H](C)C[C@H](N(C)C)[C@H]1O [Compound 11] | – | – | – | MIC (MRSA 33591): 4 µg/mL (≈ 4.5 µM); MIC (MRSA 7662): 2 µg/mL (≈ 2.25 µM) |
| CC[C@H]1OC(=O)[C@H](C)C(=O)[C@H](C)[C@@H](O[C@@H]2O[C@H](C)C[C@H](N(C)C)[C@H]2O)[C@](C)(OC)C[C@@H](C)C(=O)[C@H](C)[C@H]2N(CCCCn3cnc(-c4cccnc4)c3)C(=O)O[C@]12C [Telithromycin, reference compound] | – | – | – | MIC (S. pneumoniae 7701 [1]): 0.25; MIC (H. influenzae S1280 [2]): 2; ED50 (S. pneumoniae 7701 [3]): 10 mg/kg; MIC (S. aureus Smith [4]): 0.13; MIC (H. influenzae 1435 [5]): 2; ED50 (S. aureus Smith [6]): 11 mg/kg; ED50 (H. influenzae 1435 [7]): 49 mg/kg; ED50 (H. influenzae S1280 [8]): 56 mg/kg; ED50 (H. influenzae 3643 [9]): 78 mg/kg; MIC (H. influenzae 3643 [10]): 4 |
| CCC1OC(=O)C(C)C(=O)C(C)C(OC2OC(C)CC(N(C)C)C2O)C2(C)CC(C)C(=NC(C)=O)C(C)C(OCC(=NOCc3ccc(-c4ncccn4)cc3)CO2)C1(C)O (stereo not drawn) [Example 193 in US 6878691] | 8 | 64 | 8 | – |
| CCC1OC(=O)C(C)(F)C(=O)C(C)C(OC2OC(C)CC(N(C)C)C2O)C2(C)CC(C)C(=NC(C)=O)C(C)C(OCC(=NOCc3ccc(-c4ncccn4)s3)CO2)C1(C)O (stereo not drawn) [Example 140 in US 6878691] | 8 | 16 | 8 | – |
